One data set concerns the target T1, Recombinant human Src (Homo sapiens, UniProt P12931).
T1 construct: purchased Upstate (Lake Placid, N.Y.)
The experiment in a line: Enzymatic assay on isolated Src. It counts as biochemical.

The test system of data set [1] is U87 cells. The data set can be described thus: U87 xenograft. It counts as in vivo, mice. How it is done: Male CD1 nude mice (Charles River, Milan, Italy) were maintained under the guidelines established by University of L'Aquila, Medical School and Science and Technology School Board Regulations, complying with the Italian government regulations for the use of laboratory animals. Before any invasive manipulation, mice were anesthetized with a mixture of ketamine (25 mg/ml)/xylazine (5 mg/ml). Tumor grafts were obtained by injecting s.c. 1×10^6 U87 cells in 100 μL of 12 mg/mL Matrigel (Becton Dickinson, Franklin Lakes, N.J., USA). Mice were divided in four groups: treated with vehicle, treated with radiotherapy, treated with Si306 and treated with Si306 in combination with radiotherapy. […] At the endpoint, tumors were recovered and weighted. The tumor xenograft was irradiated once with 4Gy dose at first sign of palpable tumor mass.
Antibodies were purchased from Cell Signaling (Cell Signaling Technology, Inc.).

The test system of data set [2] is U87 cells. The data set can be described thus: Proliferation assay on U87 cells. It counts as cell-based, human. The method, then: U87 and U251 cells were purchased from European Collection of Cell Cultures (ECACC, Salisbury, UK) and were cultured in DMEM medium supplemented with 10% Foetal Bovine Serum. In order to determine antiproliferative effect of drugs tumor cells were seeded at 2×10^5 cells/ml density and treated with compounds at indicated concentrations. The cultures were maintained at 37° C. in 5% v/v CO2 for 72 h. Cell number and viability were evaluated by Trypan blue exclusion test. Viable cells were expressed as percentage respect to cells treated with vehicle (=100%). Mean and SD values of at least three different experiments are shown.
U87 and U251 cells were purchased from European Collection of Cell Cultures (ECACC, Salisbury, UK) and were cultured in DMEM medium supplemented with 10% Foetal Bovine Serum. In order to determine antiproliferative effect of drugs tumor cells were seeded at 2×10^5 cells/ml density and treated with compounds at indicated concentrations. The cultures were maintained at 37° C. in 5% v/v CO2 for 72 h. Cell number and viability were evaluated by Trypan blue exclusion test. Viable cells were expressed as percentage respect to untreated cells (=100%/). Mean and SD values of at least three different experiments are shown.

Data set [3] is described as follows: Microsomal stability assay.
A further data set can be described thus: PAMPA, BBB permeability. The conditions noted are these: Membrane Retention, BBB.

The results in this text go back to patent US20180186796A1, “COMPOUNDS AND USES THEREOF” (LEAD DISCOVERY SIENA S.R.L., priority 2014, published 2018).

Where two headings read alike, the source gives them in different places.

T1 sequence (P12931 whole entry): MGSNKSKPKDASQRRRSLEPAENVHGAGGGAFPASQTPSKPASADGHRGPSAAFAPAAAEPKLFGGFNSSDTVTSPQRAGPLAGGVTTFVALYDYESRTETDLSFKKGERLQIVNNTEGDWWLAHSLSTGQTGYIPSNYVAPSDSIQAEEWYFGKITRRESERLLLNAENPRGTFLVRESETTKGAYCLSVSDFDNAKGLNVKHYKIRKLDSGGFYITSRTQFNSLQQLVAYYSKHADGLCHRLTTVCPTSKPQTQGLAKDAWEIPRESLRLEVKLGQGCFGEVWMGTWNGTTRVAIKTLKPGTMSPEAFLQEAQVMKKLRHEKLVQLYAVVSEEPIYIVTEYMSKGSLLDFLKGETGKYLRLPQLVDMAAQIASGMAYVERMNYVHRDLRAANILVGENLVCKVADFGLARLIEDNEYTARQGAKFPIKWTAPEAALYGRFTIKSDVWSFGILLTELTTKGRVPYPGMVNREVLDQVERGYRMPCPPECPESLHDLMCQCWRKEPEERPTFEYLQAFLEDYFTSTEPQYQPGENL
Excerpt for Recombinant human Src: Recombinant human Src was purchased from Upstate (Lake Placid, N.Y.).

`ClC(Cn1ncc2c(Nc3cccc(Br)c3)nc(SCCN3CCOCC3)nc21)c1ccccc1` (stereo not shown) [Si306, N-(3-Bromophenyl)-1-(2-chloro-2-phenylethyl)-6-[(2-morpholin-4-ylethyl)thio]-1H-pyrazolo[3,4-d]pyrimidin-4-amine]: the Ki on Recombinant human Src (mean of at least two experiments, read-out: Enzymatic Data (Ki, μM) c-Src) is 0.13 µM; at Recombinant human Src (read-out: Ki c-Src), ~0.1 µM. The “reduction of tumor weight vs CTR” value with U87 cells [1] (50 mg/kg every other day for 30 days, alone) is “about 50%”. Also, in the data set with U87 cells [1] (immunohistochemistry of excised tumors), the “myofibroblast content (alpha-SMA expression) in tumor masses” value is listed as “reduction of myofibroblast content”. Further, the “reduction of the total cell number vs control” value in the data set on U87 cells [2] (U87, 5 μM, 72 h) is “about 50%”. Further, in the data set with U87 cells [2] (U87, 30 μM, 72 h), the dead cells entry is “more than 80%”. The “antiproliferative effect in combination with mitomycin C” value in the data set on U87 cells [2] (U87, 72 h, 1 μM Si306 plus increasing mitomycin C) is given as “synergic antiproliferative effect”. In data set [3] (percentage of unmodified drug, Table 8), the “Metabolic Stab. %” value came to 97.2%. Besides, in data set [3] (percentage of unmodified parent drug, human liver microsomes 60 min), the “Metabolic Stab.” value is 96%. Besides, the “PAMPA BBB (MR %)” value in “PAMPA, BBB permeability” is “(41.0) %”.
